pEC50: −log10 of the molar value.
Target: T1, OX2R (Homo sapiens, UniProt O43614)
T1 construct: expressed in transfected cells; host or cells: CHO (Chinese hamster ovary) cells constitutively expressing the OX2R gene and NFAT-luciferase (CHOOX2R)
T1 sequence (O43614 1-444): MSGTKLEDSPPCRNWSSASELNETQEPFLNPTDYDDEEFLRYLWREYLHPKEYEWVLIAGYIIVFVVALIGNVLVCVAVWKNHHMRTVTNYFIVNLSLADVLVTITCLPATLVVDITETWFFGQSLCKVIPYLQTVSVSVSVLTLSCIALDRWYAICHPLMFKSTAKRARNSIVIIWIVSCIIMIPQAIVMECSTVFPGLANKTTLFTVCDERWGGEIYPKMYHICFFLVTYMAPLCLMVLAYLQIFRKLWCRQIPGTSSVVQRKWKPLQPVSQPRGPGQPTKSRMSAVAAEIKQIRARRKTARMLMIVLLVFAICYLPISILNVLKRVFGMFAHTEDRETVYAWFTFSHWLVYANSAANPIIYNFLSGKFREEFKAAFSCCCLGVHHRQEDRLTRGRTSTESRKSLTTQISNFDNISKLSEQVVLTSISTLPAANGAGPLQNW
Assay: Evaluation of agonist activity against OX2R (CHOOX2R cells, Fura2AM fluorescence, FDSS3000)
Type: cell-based
Protocol: Evaluation of Agonist Activity Against OX2R
NFAT-luciferase gene and OX2R gene were each constitutively expressed in CHO cell, which is a cell line derived from Chinese hamster ovary to establish a cell line (CHOOX2R). The cells thereof were sown on a 96 well plate at 10000 cells/well, and cultured in a 5% FBS-added DMEM medium for 48 hr. […] After washing, HEPES buffer (75 μL) was added, a test compound solution (25 μL) was added, and changes in the fluorescence intensity were measured by FDSS3000 (Hamamatsu Photonics K.K.). The test compound was dissolved in DMSO (final concentration of DMSO was 1%), and diluted with HEPES buffer to a final concentration of 0.1 μM, 1.0 μM or 10 μM.

[1] = test compound 0.1 μM; CHOOX2R cells; relative to orexin-A as full agonist (100%)
[2] = test compound 1.0 μM; CHOOX2R cells; relative to orexin-A as full agonist (100%)
[3] = test compound 10 μM; CHOOX2R cells; relative to orexin-A as full agonist (100%)
[4] = test compound 0.1 μM; relative to orexin-A as full agonist (100%); CHOOX2R cells
[5] = test compound 1.0 μM; relative to orexin-A as full agonist (100%); CHOOX2R cells
[6] = test compound 10 μM; relative to orexin-A as full agonist (100%); CHOOX2R cells
[7] = OX2R agonist activity; CHOOX2R cells
[8] = conversion with orexin-A as full agonist (maximum agonist activity 100%)

Row | Compound | Response (0.1 μM (%)) [1] | Response (1.0 μM (%)) [2] | Response (10 μM (%)) [3] | Response (0.1 μM (%)) [4] | Response (1.0 μM (%)) [5] | Response (10 μM (%)) [6] | pEC50 [7] | Emax [8]
1 | COc1ccc(-c2cccc(C(=O)N(C)C)c2)cc1S(=O)(=O)Nc1cccc(NCCNC(=O)c2cccnc2Cl)c1 [Example 50, 2-chloro-N-(2-((3-(3′-(dimethylcarbamoyl)-4-methoxy-[1,1′-biphenyl]-3-ylsulfonamido)phenyl)amino)ethyl)nicotinamide] | <5% | 71% | 76% | – | – | – | – | –
2 | COc1ccc(F)c(-c2ccc(OC)c(S(=O)(=O)Nc3cccc(NCCNC(=O)c4ccccc4OC)c3)c2)c1 [Example 34, N-(2-((3-(2′-fluoro-4,5′-dimethoxy-[1,1′-biphenyl]-3-ylsulfonamide)phenyl)amino)ethyl)-2-methoxybenzamide] | 13% | 64% | 123% | – | – | – | – | –
3 | COc1ccc(-c2cccc(C(=O)N(C)C)c2)cc1S(=O)(=O)Nc1cccc(NCCNC(=O)c2ccnn2C)c1 [Example 59, N-(2-((3-(3′-(dimethylcarbamoyl)-4-methoxy-[1,1′-biphenyl]-3-ylsulfonamido)phenyl)amino)ethyl)-1-methyl-1H-pyrazole-5-carboxamide] | <5% | <5% | 64% | – | – | – | – | –
4 | COc1ccccc1C(=O)NCCNc1cccc(NS(=O)(=O)c2cc(-c3cccc(CO)c3)ccc2OC)c1 [Example 39, N-(2-((3-(3′-(hydroxymethyl)-4-methoxy-[1,1′-biphenyl]-3-ylsulfonamide)phenyl)amino)ethyl)-2-methoxybenzamide] | <5% | 27% | 102% | – | – | – | – | –
5 | COc1ccc(-c2cccc(C(=O)N(C)C)c2)cc1S(=O)(=O)Nc1cccc(NCCNC(=O)c2cc(F)ccc2F)c1 [Example 53, 3′-(N-(3-((2-(2,5-difluorobenzamido)ethyl)amino)phenyl)sulfamoyl)-4′-methoxy-N,N-dimethyl-[1,1′-biphenyl]-3-carboxamide] | 46% | 89% | 66% | – | – | – | 5.94 | 87%
6 | COc1ccc(-c2ccccc2F)cc1S(=O)(=O)Nc1cccc(NCCNC(=O)c2cccnc2)c1 [Example 15, N-(2-((3-(2′-fluoro-4-methoxy-[1,1′-biphenyl]-3-ylsulfonamide)phenyl)amino)ethyl)nicotineamide] | – | – | – | <5% | <5% | 6% | – | –
7 | COc1cccc(C(=O)NCCNc2cccc(NS(=O)(=O)c3cc(-c4ccccc4O)ccc3OC)c2)c1 [Example 22, N-(2-((3-(2′-hydroxy-4-methoxy-[1,1′-biphenyl]-3-ylsulfonamide)phenyl)amino)ethyl)-3-methoxybenzamide] | – | – | – | <5% | 15% | 21% | – | –
8 | COc1ccc(-c2cccc(C(=O)N(C)C)c2)cc1S(=O)(=O)Nc1cccc(NCCNC(=O)c2c(F)cccc2F)c1 [Example 45, 3′-(N-(3-((2-(2,6-difluorobenzamido)ethyl)amino)phenyl)sulfamoyl)-4′-methoxy-N,N-dimethyl-[1,1′-biphenyl]-3-carboxamide] | <5% | 80% | 98% | – | – | – | 6.94 | 100%
9 | COc1ccc(-c2cccc(C(=O)N(C)C)c2)cc1S(=O)(=O)Nc1cccc(NCCNC(=O)c2ccccc2Cl)c1 [Example 42, 3′-(N-(3-((2-(2-chlorobenzamido)ethyl)amino)phenyl)sulfamoyl)-4′-methoxy-N,N-dimethyl-[1,1′-biphenyl]-3-carboxamide] | 65% | 103% | 114% | – | – | – | 7.51 | 90%
10 | COc1ccccc1C(=O)NCCNc1cccc(NS(=O)(=O)c2cc(-c3cc(Cl)cc(Cl)c3)ccc2OC)c1 [Example 27, N-(2-((3-(3′,5′-dichloro-4-methoxy-[1,1′-biphenyl]-3-ylsulfonamide)phenyl)amino)ethyl)-2-methoxybenzamide] | – | – | – | <5% | <5% | <5% | – | –
11 | COc1ccc(-c2cccc(C(=O)N(C)C)c2)cc1S(=O)(=O)Nc1cccc(NCCNC(=O)c2cc(F)cc(F)c2)c1 [Example 54, 3′-(N-(3-((2-(3,5-difluorobenzamido)ethyl)amino)phenyl)sulfamoyl)-4′-methoxy-N,N-dimethyl-[1,1′-biphenyl]-3-carboxamide] | 33% | 168% | 126% | – | – | – | 6.20 | 94%
12 | COc1cc(OC)cc(-c2ccc(OC)c(S(=O)(=O)Nc3cccc(NCCNC(=O)c4ccccc4OC)c3)c2)c1 [Example 36, 2-methoxy-N-(2-((3-(3′,4,5′-trimethoxy-[1,1′-biphenyl]-3-ylsulfonamide)phenyl)amino)ethyl)benzamide] | <5% | 11% | 68% | – | – | – | – | –

Next, values leading:

Row | Response (0.1 μM (%)) [1] | Response (1.0 μM (%)) [2] | Response (10 μM (%)) [3] | Response (0.1 μM (%)) [4] | Response (1.0 μM (%)) [5] | Response (10 μM (%)) [6] | pEC50 [7] | Emax [8] | Compound
13 | – | – | – | <5% | <5% | 28% | – | – | COc1ccccc1C(=O)NCCNc1cccc(NS(=O)(=O)c2cccc(-c3cccc(C(=O)N(C)C)c3)c2)c1 [Example 110, 3′-(N-(3-((2-(2-methoxybenzamido)ethyl)amino)phenyl)sulfamoyl)-N,N-dimethyl-[1,1′-biphenyl]-3-carboxamide]
14 | <5% | 10% | 71% | – | – | – | – | – | COc1cccc(C(=O)NCCNc2cccc(NS(=O)(=O)c3cc(-c4cccc(C(=O)N5CCC5)c4)ccc3OC)c2)n1 [Example 83, N-(2-((3-(3′-(azetidine-1-carbonyl)-4-methoxy-[1,1′-biphenyl]-3-ylsulfonamido)phenyl)amino)ethyl)-6-methoxypicolinamide]
15 | 34% | 105% | 85% | – | – | – | – | – | COc1ccc(-c2cccc(C(=O)N(C)C)c2)cc1S(=O)(=O)Nc1cccc(NCCNC(=O)c2c(F)cccc2OC)c1 [Example 70, 3′-(N-(3-((2-(2-fluoro-6-methoxybenzamido)ethyl)amino)phenyl)sulfamoyl)-4′-methoxy-N,N-dimethyl-[1,1′-biphenyl]-3-carboxamide]
16 | <5% | <5% | 22% | – | – | – | – | – | COc1cccc(-c2ccc(OC)c(S(=O)(=O)Nc3cccc(NCCNC(=O)c4ccccc4OC)c3)c2)n1 [Example 94, 2-methoxy-N-(2-((3-(2-methoxy-5-(6-methoxypyridin-2-yl)phenylsulfonamido)phenyl)amino)ethyl)benzamide]
17 | 51% | 68% | 88% | – | – | – | – | – | COc1ccc(-c2cccc(C(=O)N3CCCCC3)c2)cc1S(=O)(=O)Nc1cccc(NCCNC(=O)c2ccccc2F)c1 [Example 90, 2-fluoro-N-(2-((3-(4-methoxy-3′-(piperidine-1-carbonyl)-[1,1′-biphenyl]-3-ylsulfonamido)phenyl)amino)ethyl)benzamide]
18 | <5% | 43% | 75% | – | – | – | – | – | COc1ccc(-c2cccc(C(=O)N(C)C)c2)cc1S(=O)(=O)Nc1cccc(NCCNC(=O)c2sccc2C)c1 [Example 60, N-(2-((3-(3′-(dimethylcarbamoyl)-4-methoxy-[1,1′-biphenyl]-3-ylsulfonamido)phenyl)amino)ethyl)-3-methylthiophene-2-carboxamide]
19 | 45% | 90% | 98% | – | – | – | 6.74 | 98% | CNC(=O)c1cccc(-c2ccc(OC)c(S(=O)(=O)Nc3cccc(NCCNC(=O)c4ccccc4OC)c3)c2)c1 [Example 73, 4′-methoxy-3′-(N-(3-((2-(2-methoxybenzamido)ethyl)amino)phenyl)sulfamoyl)-N-methyl-[1,1′-biphenyl]-3-carboxamide]
20 | <5% | 39% | 80% | – | – | – | – | – | COc1ccc(-c2cccc(C(=O)N(C)C)c2)cc1S(=O)(=O)Nc1cccc(NCCNC(=O)c2ccccc2C#N)c1 [Example 71, 3′-(N-(3-((2-(2-cyanobenzamido)ethyl)amino)phenyl)sulfamoyl)-4′-methoxy-N,N-dimethyl-[1,1′-biphenyl]-3-carboxamide]

Reference: patent publication US9815787B2, “Sulfonamide derivative or pharmaceutically acceptable acid addition salt thereof” (UNIVERSITY OF TSUKUBA, priority 2013, dated 2017)
